According to US20260015350A1, “AZAQUINAZOLINE PAN-KRAS INHIBITORS” (Mirati Therapeutics, Inc., priority 2022, published 2026):

Tests used:
KRas^G12D = molecular target: T1, KRas^G12D (Homo sapiens, UniProt P01116, G12D); test: KRas binding assay (TR-FRET tracer displacement), KRas G12D
T1 construct: Biotinylated KRas (corresponding to amino acids 1-169, produced at Accelegan Inc.); biotin (biotinylated); purchased Accelegan Inc

KRas^G12R = molecular target: T2, KRas^G12R (Homo sapiens, UniProt P01116, G12R); test: KRas binding assay (TR-FRET tracer displacement), KRas G12R
T2 construct: Biotinylated KRas (corresponding to amino acids 1-169, produced at Accelegan Inc.); biotin (biotinylated); purchased Accelegan Inc
T2 sequence (P01116 1-169 isoform P01116-2 G12R): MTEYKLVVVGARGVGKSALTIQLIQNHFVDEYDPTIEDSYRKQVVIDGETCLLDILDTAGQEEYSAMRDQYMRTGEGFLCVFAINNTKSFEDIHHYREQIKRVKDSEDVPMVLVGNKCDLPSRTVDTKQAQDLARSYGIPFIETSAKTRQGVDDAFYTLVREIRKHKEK

KRas^G12V = molecular target: T3, KRas^G12V (Homo sapiens, UniProt P01116, G12V); test: KRas binding assay (TR-FRET tracer displacement), KRas G12V
T3 construct: Biotinylated KRas (corresponding to amino acids 1-169, produced at Accelegan Inc.); biotin (biotinylated); purchased Accelegan Inc
T3 sequence (P01116 1-169 isoform P01116-2 G12V): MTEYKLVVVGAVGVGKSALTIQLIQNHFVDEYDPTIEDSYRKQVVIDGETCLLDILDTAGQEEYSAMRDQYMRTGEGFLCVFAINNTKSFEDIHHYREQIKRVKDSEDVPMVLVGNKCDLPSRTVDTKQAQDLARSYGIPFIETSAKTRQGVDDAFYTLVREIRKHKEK

[1] = test system: KRas-mediated phosphorylation of ERK in AsPC-1 cells; test: Inhibition of KRas-mediated phosphorylation of ERK (Cisbio HTRF pERK), AsPC-1 cells; assay type: cell-based; conditions: Homo sapiens; for inhibition at 0.1 µM: ASPC1, 3 h, single point, 100 nM compound, 3 hrs, AsPC-1 cells; for IC50: ASPC1, AsPC-1 cells, HTRF pERK
In short: (§1)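 Following a 3-hr exposure of cells to serially diluted compound (from 10 uM, 3-fold, 10 doses), cold lysis for 40 mins preceded a 2-hr room-temperature HTRF immunoassay for phosphorylated ERK.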

[2] = test system: KRas-mediated phosphorylation of ERK in H727 cells; test: Inhibition of KRas-mediated phosphorylation of ERK (Cisbio HTRF pERK), H727 cells; assay type: cell-based; conditions: Homo sapiens; for inhibition at 0.1 µM: NCI-H727, 3 h, single point, 100 nM compound, 3 hrs, H727 cells; for IC50: NCI-H727, H727 cells, HTRF pERK
In short: as §1

[3] = test system: KRas-mediated phosphorylation of ERK in A549 cells; test: Inhibition of KRas-mediated phosphorylation of ERK (Cisbio HTRF pERK), A549 cells; assay type: cell-based; conditions: Homo sapiens; for inhibition at 0.1 µM: A549, 3 h, single point, 100 nM compound, 3 hrs; for IC50: HTRF pERK
In short: (§2)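 Signal read by HTRF (d2/Cryptate antibody pair, 2 hr room-temperature incubation on lysate). Cells: 6,000 per well, 3 hr compound exposure. Titration: 10 uM highest, 3-fold, 10 points.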

[4] = test system: KRas-mediated phosphorylation of ERK in H460 cells; test: Inhibition of KRas-mediated phosphorylation of ERK (Cisbio HTRF pERK), H460 cells; assay type: cell-based; conditions: Homo sapiens; for inhibition at 0.1 µM: NCI-H460, 3 h, single point, 100 nM compound, 3 hrs; for IC50: NCI-H460, HTRF pERK
In short: as §1

[5] = test system: KRas-mediated phosphorylation of ERK in HCT116 cells; test: Inhibition of KRas-mediated phosphorylation of ERK (Cisbio HTRF pERK), HCT116 cells; assay type: cell-based; conditions: Homo sapiens; for inhibition at 0.1 µM: HCT-116, 3 h, single point, 100 nM compound, 3 hrs; for IC50: HCT-116, HTRF pERK
In short: as §2

[6] = test system: KRas-mediated phosphorylation of ERK in H358 cells; test: Inhibition of KRas-mediated phosphorylation of ERK (Cisbio HTRF pERK), H358 cells; assay type: cell-based; conditions: Homo sapiens; for inhibition at 0.1 µM: NCI-H358, 3 h, single point, 100 nM compound, 3 hrs; for IC50: NCI-H358, HTRF pERK
Experimental: Inhibition of KRas Phosphorylation of ERK (HTRF) by Exemplary Compounds of Formula (I) Cisbio HTRF Advanced PERK Assay Catalog #64[…] […] Add 10 mL of media to stop trypsinizing. Pipette the cells into a conical bottom 50 mL centrifuge tube and centrifuge 5 min×1000 rpm. […] Re-suspend the cell pellet in media, take a cell count, and then adjust the cell density using fresh media. […] Seed 6,000 cells into cell culture plate with 50 μL media. […] Use Tecan to complete the compound addition. Compounds start from 10 uM top, 3-fold dilution, and 10 doses. The final DMSO concentration is 0.8%. Dispensed 0.2 uM Trametinib as Min control. […] Incubate cell plate for 3 hrs in the incubator. […] Dilute 1 volume of 4× lysis buffer with 3 volumes of deionized water. […] Keep lysis buffer on the ice. […] At the end of the compound treatment, flick-off the media. […] Add 35 μL of lysis buffer per well using a Multidrop Combi. Then place on a plate agitator shaking at 300 rpm at 4° C. for 40 mins. […] Make up the HTRF antibody buffer. For each assay plate, mix 50 μL of d2-conjugate antibody with 950 μL of detection buffer. Similarly, mix 50 μL of Cryptate antibody with 950 μL of detection buffer. Then mix the two diluted antibodies together. […] Dispense 3.4 μL the antibody buffer to wells of an empty assay plate. Seal the plate and centrifuge plate 30 sec×1000 rpm. […] At the end of the 4° C. lysis, centrifuge the lysate plates 3 mins×1500 rpm. […] Use the Bravo to transfer 13.6 μL of lysate from cell culture plate to assay plate. Then incubate assay plate for 2 hrs at room temperature. 8. At the end of incubation, read plate on the Envision after centrifuging plate 30 sec×1000 rpm.

T1 sequence (P01116 1-169 isoform P01116-2 G12D): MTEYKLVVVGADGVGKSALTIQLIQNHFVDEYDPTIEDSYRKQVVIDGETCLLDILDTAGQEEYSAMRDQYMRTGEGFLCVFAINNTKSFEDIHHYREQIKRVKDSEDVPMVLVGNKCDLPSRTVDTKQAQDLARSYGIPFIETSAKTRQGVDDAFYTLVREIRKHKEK

Row | Structure (SMILES) | IC50 (KRas^G12D) | IC50 (KRas^G12R) | IC50 (KRas^G12V) | inhibition at 0.1 µM [1] | inhibition at 0.1 µM [2] | IC50 [2] | inhibition at 0.1 µM [3] | inhibition at 0.1 µM [4] | inhibition at 0.1 µM [5] | inhibition at 0.1 µM [6] | IC50 [1] | IC50 [3] | IC50 [4] | IC50 [5] | IC50 [6]
1 | CCc1c(F)ccc2cc(O)cc(-c3ncc4c(NCc5cc(C(=O)N(C)C)nn5CC#N)nc(OC[C@@]56CCCN5C[C@H](F)C6)nc4c3F)c12 [Example 657, 1-(cyanomethyl)-5-(((7-(8-ethyl-7-fluoro-3-hydroxynaphthalen-1-yl)-8-fluoro-2-(((2R,7aS)-2-fluorotetrahydro-1H-pyrrolizin-7a(5H)-yl)methoxy)pyrido[4,3-d]pyrimidin-4-yl)amino)methyl)-N,N-dimethyl-1H-pyrazole-3-carboxamide] | 4 nM | < 2 nM | < 2 nM | -24% | 19% | 2660 nM | -2% | -18% | -9% | 27% | – | – | – | – | –
2 | CCc1c(F)ccc2cc(O)cc(-c3ncc4c(N5CCCC6(CC6C#N)C5)nc(OC[C@@]56CCCN5C[C@H](F)C6)nc4c3F)c12 (stereo partly drawn) [Example 851, 5-(7-(8-ethyl-7-fluoro-3-hydroxynaphthalen-1-yl)-8-fluoro-2-(((2R,7aS)-2-fluorotetrahydro-1H-pyrrolizin-7a(5H)-yl)methoxy)pyrido[4,3-d]pyrimidin-4-yl)-5-azaspiro[2.5]octane-1-carbonitrile] | 36 nM | 9 nM | 12 nM | – | – | 932 nM | – | – | – | – | 1210 nM | 397 nM | 159 nM | 475 nM | 264 nM
3 | CCc1c(F)ccc2cc(O)cc(-c3ncc4c(N5CCC[C@@](C)(O)C5)nc(OCC56CNCCC5C6)nc4c3F)c12 (stereo partly drawn) [Example 697, (3R)-1-(2-((3-azabicyclo[4.1.0]heptan-1-yl)methoxy)-7-(8-ethyl-7-fluoro-3-hydroxynaphthalen-1-yl)-8-fluoropyrido[4,3-d]pyrimidin-4-yl)-3-methylpiperidin-3-ol] | 4 nM | 7 nM | 6 nM | – | – | 4750 nM | -4% | 19% | 1% | 5% | 1860 nM | – | – | – | –
4 | CCc1c(F)ccc2cc(O)cc(-c3ncc4c(N5CC6CCC(CC(N)=O)(C6)C5)nc(OC[C@@]56CCCN5C[C@H](F)C6)nc4c3F)c12 (stereo partly drawn) [Example 908, 2-(3-(7-(8-ethyl-7-fluoro-3-hydroxynaphthalen-1-yl)-8-fluoro-2-(((2R,7aS)-2-fluorotetrahydro-1H-pyrrolizin-7a(5H)-yl)methoxy)pyrido[4,3-d]pyrimidin-4-yl)-3-azabicyclo[3.2.1]octan-1-yl)acetamide] | 14 nM | 8 nM | 6 nM | – | – | 2310 nM | – | – | – | – | 5800 nM | 1630 nM | 630 nM | 1730 nM | 707 nM
5 | Cc1c(O)cc2ccccc2c1-c1ncc2c(N3C[C@@H]4C[C@H](C3)[C@H](O)C4)nc(OC[C@@]34CCCN3C[C@H](F)C4)nc2c1F [Example 786, (1R,5R,6R)-3-(8-fluoro-2-(((2R,7aS)-2-fluorohexahydro-1H-pyrrolizin-7a-yl)methoxy)-7-(3-hydroxy-2-methylnaphthalen-1-yl)pyrido[4,3-d]pyrimidin-4-yl)-3-azabicyclo[3.2.1]octan-6-ol] | 423 nM | 160 nM | 110 nM | 1% | 15% | 2820 nM | 19% | 8% | 0% | -3% | 4960 nM | – | – | – | –
